Results from patent publication US9040691B2, “Hydroxymethylaryl-substituted pyrrolotriazines as ALK1 inhibitors” (BAYER INTELLECTUAL PROPERTY GMBH, priority 2011, dated 2015).
pIC50: −log10 of the molar value.

How the values were obtained:
[1] = tested on: laser-induced choroidal neovascularisation; experiment: Topical efficacy in the laser-induced choroidal neovascularization (CNV) model; format: in vivo, rat; conditions: Brown-Norway rats, eye drops 10 μl of 20 mg/ml twice daily; for vascular leakage [HRA score]: angiography day 21, score 0-3; for choroidal neovascularisation lesion size: day 23
Procedure: B-4. Topical Efficacy in the Laser-Induced Choroidal Neovascularization (CNV) Model
For this purpose, 65 pigmented Brown-Norway rats with no visible sign of ocular defects were selected and randomly assigned to six different groups (for n-numbers, see table below). On day 0, the animals were anaesthetized by an intraperitoneal injection (15 mg/kg xylazine and 80 mg/kg ketamine). After instillation of one drop of 0.5% tropicamide to dilate the pupils, choroidal neovascularisation was induced by burning six holes into the retina (disruption of Bruch's membrane) of one eye per animal using a 532 nm argon laser (lesion size: 50 μm; laser intensity: 150 mW; stimulus duration: 100 ms). Test compounds and vehicle controls were topically administered twice daily by instilling respective eye drops into the affected eye. The test compounds were dosed as follows: 10 μl of an eye drop formulation containing 20 mg/ml of the respective test compound suspended either in 100% liquid paraffin or in an aqueous vehicle (HPMC 15 cP 3.5%, polysorbate 80 0.5%, NaCl 0.9% in water) were applied to the affected eye twice daily at a 10 to 14 hour interval during the complete observation period of 23 days. Control animals received the respective vehicle (100% liquid paraffin or aqueous vehicle) topically twice daily. The body weight of all animals was recorded before the start and once daily during the study.
An angiography was performed on day 21 using a fluorescence fundus camera (Kowe). Here, after anaesthesia and pupillary dilation, 10% sodium fluorescein dye was injected subcutaneously, and images were recorded 2 and 10 min after dye injection. The vascular leakage of the fluorescein on the angiograms was evaluated by three different examiners who were blinded for group allocation (test compound versus vehicle), and scored with 0 (no leakage) to 3 (strongly stained).
On day 23, animals were sacrificed, and eyes were harvested and fixed in 4% paraformaldehyde solution for 1 hour at room temperature. After washing, the retina was carefully peeled, washed, blocked and stained with a FITC-isolectine B4 antibody in order to visualize the vasculature. Then, the sclera-choroids were flat-mounted and examined under a fluorescence microscope (Keyence Biozero) at 488 nm excitation wavelength. The area (in μm^2) of choroidal neovascularization was measured using ImageTool software.

ALK1 kinase = ALK1 kinase (Homo sapiens (Human), UniProt P37023); experiment: ALK1 kinase assay (ProQinase protocol); format: biochemical; conditions: ProQinase radiometric assay, casein, γ-33P-ATP
Procedure: B-1b. ALK1 Kinase Assay (ProQinase Protocol)
ALK1 (Invitrogen, Carlsbad, Calif., USA) kinase activity was measured at ProQinase GmbH (Freiburg, Germany) in a radiometric assay using γ-^33P-ATP and casein (Sigma, St. Louis, Mo., USA) as substrate in 96-well PerkinElmer FlashPlates™ (Boston, Mass., USA). The compounds were tested at 10 concentrations in the range of 1×10^−4 M to 3×10^−9 M in a total volume of 50 μl with a final DMSO concentration of 1% each. The assay components were mixed in the order: • 20 μl assay buffer (70 mM HEPES-NaOH, pH 7.5, 3 mM MgCl2, 3 mM MnCl2, 2 μM sodium orthovanadate, 1.2 mM DTT); • 5 μl γ-^33P-ATP (1.0 μM in water, approx. 6×10^5 cpm per well); • 5 μl test compound solution (in 10% DMSO); • […] (200 μg/ml, 1.0 μg/50 μl final concentration)/enzyme (4 μg/ml, 20 ng/50 μl=5.5 nM final concentration) solution (1:1 mixture).
The reaction mixtures were incubated at 30° C. for 60 minutes and stopped by adding 50 μl 2% (v/v) phosphoric acid. The plates were aspirated and washed twice with 200 μl 0.9% (w/v) sodium chloride. Incorporation of ^33Pi was determined with a microplate scintillation counter (Microbeta, Wallac). All assays were performed using a BecicmanCoulter/SAGIAN™ Core System.
Median values obtained from unspecific substrate binding of labelled. ATP were set as background level, while median values measured in the absence of any inhibitor were considered to reflect full activity of ALK1 kinase. The background activity (ba) was subtracted from the full activity (fa) value as well as from the values obtained from the test compound containing samples (test compound activity, tea). The residual activity in the latter was calculated as follows: residual activity (%)=100×[(tca−ba)/(fa−ba)]
The residual activities for each concentration and the compound IC50 values were calculated using Quattro Workflow V3.1.0 (Quattro Research GmbH, Munich, Germany). The fitting model for the IC50 determinations was “Sigmoidal response (variable slope)” with parameters “top” fixed at 100% and “bottom” at 0%. The fitting method used was a least-squares fit.

[2] = tested on: laser-induced choroidal neovascularisation; experiment: Systemic efficacy in the laser-induced choroidal neovascularization (CNV) model; format: in vivo, rat; conditions: Brown-Norway rats, i.p. once daily 50 mg/kg days 0-1 then 20 mg/kg
Procedure: B-3. Systemic Efficacy in the Laser-Induced Choroidal Neovascularization (CNV) Model
For this purpose, 16 pigmented Brown-Norway rats with no visible sign of ocular defects were selected and randomly divided into two groups of eight animals each. On day 0, the animals were anaesthetized by an intraperitoneal injection (15 mg/kg xylazine and 80 mg/kg ketamine). After instillation of one drop of 0.5% tropicamide to dilate the pupils, choroidal neovascularisation was induced by executing six 75 μm-sized choroidal burns around the optic disc of the right eyes using a 532 nm argon laser photocoagulation at 150 mW for 100 ms. […] The body weight of all animals was recorded before the start and once daily during the study.
An angiography was performed on day 21 using Heidelberg's Retinal Angiograph (HRA). After anaesthesia and pupillary dilation, 10% sodium fluorescein dye was injected subcutaneously, and images were recorded 10 min after dye injection. The vascular leakage of the fluorescein on the angiograms was evaluated by two examiners in a masked fashion and scored with 0 (no leakage) to 3 (strongly stained).
After euthanasia on day 23, the eyes were harvested and fixed in 4% paraformaldehyde solution for 1 hour at room temperature. […] The flat-mounted preparations were examined under a fluorescence microscope (Apotom) at 488 nm excitation wavelength. […]

Sequence of ALK1 kinase (P37023 22-503): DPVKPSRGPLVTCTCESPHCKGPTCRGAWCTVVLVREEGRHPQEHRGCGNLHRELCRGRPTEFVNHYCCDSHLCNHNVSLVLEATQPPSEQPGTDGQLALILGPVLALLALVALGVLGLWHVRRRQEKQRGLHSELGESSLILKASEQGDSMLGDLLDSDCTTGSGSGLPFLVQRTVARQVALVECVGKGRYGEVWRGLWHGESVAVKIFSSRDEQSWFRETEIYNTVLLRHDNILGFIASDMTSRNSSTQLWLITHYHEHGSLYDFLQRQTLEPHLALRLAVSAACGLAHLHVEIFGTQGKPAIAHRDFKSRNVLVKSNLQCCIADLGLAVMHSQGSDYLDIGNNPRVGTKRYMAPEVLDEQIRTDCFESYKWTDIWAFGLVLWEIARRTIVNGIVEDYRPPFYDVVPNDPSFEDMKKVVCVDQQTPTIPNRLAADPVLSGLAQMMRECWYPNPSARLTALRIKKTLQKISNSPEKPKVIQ

SMILES | vascular leakage [HRA score] ([1]; aqueous vehicle) | choroidal neovascularisation lesion size ([1]; aqueous vehicle) [μm^2 × 10 000] | vascular leakage [HRA score] ([1]; paraffin vehicle) | choroidal neovascularisation lesion size ([1]; paraffin vehicle) [μm^2 × 10 000] | pIC50 (ALK1 kinase) | vascular leakage [angiography score] ([2]; angiography day 21, score 0-3) | choroidal neovascularisation lesion volume ([2]; day 23) [μm^3 × 100 000]
Nc1ncnn2c1c(-c1cc(F)c(CO)c(F)c1)cc2[C@H]1CC[C@H](O)CC1 [Example 7, trans-4-[4-Amino-5-[3,5-difluoro-4-(hydroxymethyl)phenyl]pyrrolo[2,1-f][1,2,4]triazin-7-yl]-cyclohexanol] | 1.49 ± 0.24 | 6.14 ± 1.60 | 1.52 ± 0.21 | 6.21 ± 0.99 | 8.17 |  | 
Nc1ncnn2c([C@@H]3CCCNC3)cc(-c3cc(F)c(CO)c(F)c3)c12 [Example 11, (4-{4-Amino-7-[(3R)-piperidin-3-yl]pyrrolo[2,1-f][1,2,4]triazin-5-yl}-2,6-difluorophenyl)methanol] | 1.66 ± 0.29 | 5.50 ± 1.38 | 1.41 ± 0.29 | 6.45 ± 1.63 | 8.52 | 0.68 ± 0.35 | 3.48 ± 0.40
